In US20220017833A1, “Methods and Compositions for Scavenging Sulfides from Hydrocarbon Fluids and Aqueous Streams” (Nexgen Oilfield Chemicals, LLC, priority 2019, published 2022):

How the values were obtained:
[1] = Solution Homogeneity Test; format: physicochemical; details: Table 5; glyoxy alkyl diaminol in water and MeOH only
Text: In one aspect, as two-phase reaction products are problematic, scavenger system homogeneity is desired. The two phases could be emulsified or otherwise finely dispersed, but in practice, even fine, seemingly stable dispersions eventually separate or stratify in extended storage or critical use and are not robust enough for practical use. They are not allowed, for example, to be fed through capillaries for fear of plugging them. In this pass/fail test, a sample is held up for visual inspection in a backlit clear vial. A clear, single-phase, homogeneous solution is a pass. Anything else is a fail.

[2] = operational testing in a natural gas production facility
Method: In operational testing in a natural gas production facility, both an anhydrous glyoxy isopropyl aminacetal (GIDAc) scavenging system and an aqueous glyoxy isopropyl diaminol (GIDA) scavenging system were tested in comparison with an industry standard triazine-based scavenger.

SMILES: CC(C)NC(O)C(O)NC(C)C (stereo not drawn) [GIDA, 1,2-bis[(propan-2-yl)amino]ethane-1,2-diol]
- Solution Homogeneity [1]: Pass
- H2S removal on a pound-per-pound basis ([2]; compared with the triazine-based scavenging system): significantly higher H2S removal
- employable in scavenging H2S from natural gas ([2]; natural gas production facility): employable
